Results: patent publication US7022699B2, “Cyclohexenyl phenyl diazepines vasopressin and oxytocin receptor modulators” (Wyeth, priority 2001, dated 2006)

Assays:
human oxytocin receptor = target: T1, human oxytocin receptor (Homo sapiens, UniProt P30559); test: Oxytocin binding in CHO cell membranes expressing human oxytocin receptors ([3H]oxytocin); details: for IC50: values in parentheses, read-out: OT (IC50); for inhibition at 0.1 µM / OT % inhibition @ 100 nM: 100 nM, values without parentheses; for inhibition at 0.1 µM: read-out: OT % inhibition @ 100 nM
T1 construct: host or cells: CHO cells, stably transfected (pcDNA3.1 vector); membranes
T1 sequence (P30559 1-389): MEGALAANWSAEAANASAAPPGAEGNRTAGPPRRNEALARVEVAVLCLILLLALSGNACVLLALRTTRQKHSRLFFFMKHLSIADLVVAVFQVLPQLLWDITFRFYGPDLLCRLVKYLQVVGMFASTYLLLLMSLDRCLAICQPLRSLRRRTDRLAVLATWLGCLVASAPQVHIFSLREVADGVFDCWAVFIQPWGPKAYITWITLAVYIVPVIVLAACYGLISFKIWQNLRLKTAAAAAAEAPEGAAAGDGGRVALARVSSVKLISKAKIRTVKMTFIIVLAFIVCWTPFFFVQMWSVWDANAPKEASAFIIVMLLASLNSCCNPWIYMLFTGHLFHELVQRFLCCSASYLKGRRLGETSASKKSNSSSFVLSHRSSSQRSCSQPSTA
Source text: Oxytocin Binding in Chinese Hamster Ovary Cell Membranes Expressing Human Oxytocin Receptors
Chinese Hamster Ovary (CHO) cells stably transfected with the human oxytocin (cf. Tanizawa et al., U.S. Pat. No. 5,466,584 (1995) to Rohto Pharmaceutical Co. Ltd., Osaka, Japan) were obtained from M. Thibonnier, Case Western Reserve University School of Medicine, Cleveland, Ohio. A. Passaging and Amplification of Cells: CHO cells transfected with the human oxytocin receptors obtained from M. Thibonnier (pcDNA3.1 vector) are allowed to grow to confluency (approx. >90%) in T-150 flasks under sterile conditions, in a cell culture medium of F-12 Nutrient Mixture (HAM) with L-glutamine (Gibco Cat. #11765-054) containing 15 mM HEPES (Gibco Cat. #15630-080), 1% antibiotic/antimycotic (add 5 mL 100×, Gibco Cat. #15240-062 per 500 mL F-12), 400 μg/mL of Geneticin (add 4 mL of 50 mg/mL per 500 mL F-12) and 10% Fetal Bovine Serum (Qualified, heat inactivated, Gibco Cat. #16140-063). The medium is removed by aspiration and the cells are washed with 10 mL of Hank's Balanced Salt solution (Gibco Cat. #14175-095). The salt solution is removed by aspiration and the cells trypsinized with 5 mL of trypsin-EDTA (0.05% trypsin, 0.53 mM EDTA-4Na, Gibco Cat. #25300-070) for 1 min. The trypsin is removed by aspiration and the cells dislodged by tapping. Cell Culture medium (e.g. 30 mL for 1:30 split) is immediately added and mixed well to inactivate trypsin. 1 mL of detached cells is added to new culture flasks containing fresh Cell Culture medium (e.g. into 25 mL per T-150 flask), and mixed gently. The cells are incubated at 37° C. in 5% CO2. The medium is changed at 3 to 4 days interval (or as appropriate). The cells grow to confluency (approx. >75%–95%) within 7–8 days. All steps are done under sterile conditions. B. Membrane Preparation: The cells are washed twice gently with Hank's Balanced Salt solution (e.g., use 10 mL per T-150 flask). The excess is removed and the cells bathed for 15–30 min. in an enzyme-free Cell Dissociation Buffer (e.g., use 8 mL Hank's Based, Gibco Cat. #13150-016 per T-150 flask) until cells are loosened. The contents are transferred to centrifuge tubes (50 mL size) kept in ice bath. All subsequent steps are done at 4° C. The tubes are centrifuged at 300×g for 15 min (1380 rpm on SORVAL, Model RT6000D, using rotor for 50 mL tubes). The supernatant is discarded and the cells suspended in homogenizing buffer (10 mM Tris-HCl containing 0.25 M sucrose and 1 mM EDTA, pH 7.4) ensuring that the volume of the buffer is about ten times the volume of the cell pellet. The cells are pooled into a centrifuge tube (50 mL) and homogenized with Polytron at setting 6 for 10 sec. The homogenate is transferred into a Potter-Elvjehm homogenizer and homogenized with 3 strokes. The homogenate is centrifuged at 1500×g for 10 min at 4° C. (3100 rpm using SORVAL, model RT6000D, using rotor for 50 mL tubes). The pellet. is discarded. The supernatant is centrifuged at 100,000×g for 60 min. at 4° C. (Beckman L8-80M ultracentrifuge; spin at 37,500 rpm with rotor type 70 Ti for 50 mL tubes; 38,000 rpm with type 80Ti for 15 mL tubes; or 35,800 rpm with rotor type 45Ti). The supernantant is discarded and the pellet suspended in 3 to 4 mL of Tris buffer (50 mM TRIS-HCl, pH 7.4). The protein content is estimated by the Bradford or Lowry method. The volume of the membrane suspension is adjusted with the membrane buffer (50 mM Tris-HCl containing 0.1% BSA and 0.1 mM PMSF) to give 3.0 mg/mL (or as appropriate) of protein. The membranes are aliquoted and stored at −70° C. C. Radioligand Binding Assay: In wells of a 96-well format microliter plate, is added 90, 110 or 130 μL (to make up a final volume of 200 μL) of assay buffer containing 50 mM of Tris-HCl (pH 7.4), […], 1 mg % aprotinin, 1 mg % leupeptin, 2 mg % 1,10-phenanthroline, 10 mg % trypsin inhibitor, and 0.1 mM PMSF. The inhibitors are added on the day of the experiment. […]

Structure (SMILES) | inhibition at 0.1 µM (human oxytocin receptor) | further results
CC1CCCC=C1c1ccc(C(=O)N2Cc3cccn3Cc3ccccc32)cc1 (centres unmarked) [Example 16, (10,11-Dihydro-5H-pyrrolo[2,1-c][1,4]benzodiazepin-10-yl)-[4-(6-methyl-cyclohex-1-en-1-yl)-phenyl]-methanone] |  | IC50 (human oxytocin receptor): 21.8 nM; melting point: 108 to 109 °C
CC1=C(c2ccc(C(=O)N3Cc4cccn4Cc4ccccc43)cc2C)CCCC1=O [Example 4, 3-[2-Methyl-4-(5H-pyrrolo[2,1-c][1,4]benzodiazepin-10(11H)-yl-carbonyl)phenyl]-2-methyl-cyclohex-2-en-1-one] | 46% | 
COc1cc(C2=CCCCC2)c(Cl)cc1C(=O)N1Cc2cccn2Cc2ccccc21 [Example 1, 10-(5-Chloro-4-cyclohex-1-en-1-yl-2-methoxybenzoyl)-10,11-dihydro-5H-pyrrolo[2,1-c][1,4]benzodiazepine] |  | IC50 (human oxytocin receptor): 7.74 nM; melting point: 92 to 98 °C
CC1=C(c2ccc(C(=O)N3Cc4cccn4Cc4ccccc43)cc2C)CCCC1N (centres unmarked) [Example 45, [4-(3-Amino-2-methyl-cyclohex-1-en-1-yl)-3-methyl-phenyl]-(10,11-dihydro-5H-pyrrolo[2,1-c][1,4]benzodiazepin-10-yl)-methanone] | 67% | 
CC1(C)C2CC=C(c3ccc(C(=O)N4Cc5cccn5Cc5ccccc54)cc3)C1C2 (centres unmarked) [Example 22, (10,11-Dihydro-5H-pyrrolo[2,1-c][1,4]benzodiazepin-10-yl)-[4-(6,6-dimethyl-bicyclo[3.1.1]hept-2-en-2-yl)-phenyl]-methanone] | 32% | melting point: 118 to 119 °C
Cc1cc(C(=O)N2Cc3cccn3Cc3ccccc32)ccc1C1=CCCc2ccccc21 [Example 3, (10,11-Dihydro-5H-pyrrolo[2,1-c][1,4]benzodiazepin-10-yl)-[4-(3,4-dihydro-naphthalen-1-yl)-3-methyl-phenyl]-methanone] |  | IC50 (human oxytocin receptor): 24 nM; melting point: 108 °C
Cc1cc(C(=O)N2Cc3cccn3Cc3ccccc32)ccc1C1=CCC2CCC1C2 (centres unmarked) [Example 35, (10,11-Dihydro-5H-pyrrolo[2,1-c][1,4]benzodiazepin-10-yl)-(4-bicyclo[3.2.1]oct-2-en-2-yl-3-methyl-phenyl)-methanone] | 48% | melting point: 168 to 169 °C
CC1=C(c2ccc(C(=O)N3Cc4cccn4Cc4ccccc43)cc2C)CCCC1O (racemic) [Example 5, (10,11-Dihydro-5H-pyrrolo[2,1-c][1,4]benzodiazepin-10-yl)-[4-(3-hydroxy-2-methyl-cyclohex-1-en-1-yl)-3-methyl-phenyl]-methanone] | 13% | 
CC(C)(C)C1CCCC=C1c1ccc(C(=O)N2Cc3cccn3Cc3ccccc32)cc1 (centres unmarked) [Example 20, (10,11-5H-Dihydro-pyrrolo[2,1-c][1,4]benzodiazepin-10-yl)-[4-(6-tert-butyl-cyclohex-1-en-1-yl)-phenyl]-methanone] |  | OT % inhibition @ 100 nM (human oxytocin receptor): 27%
CC1(C)CCCC=C1c1ccc(C(=O)N2Cc3cccn3Cc3ccccc32)c(Cl)c1 [Example 12, (10,11-Dihydro-5H-pyrrolo[2,1-c][1,4]benzodiazepin-10-yl)-[2-chloro-4-(6,6-dimethyl-cyclohex-1-en-1-yl)-phenyl]-methanone] | 74% | 
CC1=C(c2ccc(C(=O)N3Cc4cccn4Cc4ccccc43)cc2C)CCC[C@@H]1O (single isomer, unassigned) [Example 43] | 96% | 
CC1=C(c2ccc(C(=O)N3Cc4cccn4Cc4ccccc43)cc2)CCCC1O (centres unmarked) [Example 27, (10,11-Dihydro-5H-pyrrolo[2,1-c][1,4]benzodiazepin-10-yl)-[4-(3-hydroxy-2-methyl-cyclohex-1-en-1-yl)-phenyl]-methanone] | 96% | 
CC1=C(c2ccc(C(=O)N3Cc4cccn4Cc4ccccc43)c(Cl)c2)CCCC1=O [Example 13, (10,11-Dihydro-5H-pyrrolo[2,1-c][1,4]benzodiazepin-10-yl)-[2-chloro-4-(2-methyl-3-oxo-cyclohex-1-en-1-yl)-phenyl]-methanone] | 98% | 
O=C(c1ccc(C2=CCCCC2)cc1Cl)N1Cc2cccn2Cc2ccccc21 [Example 10, (10,11-dihydro-5H-pyrrolo[2,1-c][1,4]benzodiazepin-10-yl)-[2-chloro-4-(cyclohex-1-en1-yl)-phenyl]-methanone] | 95% | 
Cc1cc(C(=O)N2Cc3cccn3Cc3ccccc32)ccc1C1=CC(O)CCC1 (centres unmarked) [Example 40, (10,11-Dihydro-5H-pyrrolo[2,1-c][1,4]benzodiazepin-10-yl)-[4-(3-hydroxy-cyclohex-1-en-1-yl)-3-methyl-phenyl]-methanone] | 63% | 
O=C(c1ccc(C2=CCC3CCC2C3)cc1)N1Cc2cccn2Cc2ccccc21 (centres unmarked) [Example 21] |  | OT % inhibition @ 100 nM (human oxytocin receptor): 38%
CC1=C(c2ccc(C(=O)N3Cc4cccn4Cc4ccccc43)c(Cl)c2)CCCC1O (centres unmarked) [Example 14, (10,11-Dihydro-5H-pyrrolo[2,1-c][1,4]benzodiazepin-10-yl)-[2-chloro-4-(3-hydroxy-2-methyl-cyclohex-1-en-1-yl)-phenyl]-methanone] | 27% | 
CC1=C(c2ccc(C(=O)N3Cc4cccn4Cc4ccccc43)cc2C)CCC[C@H]1O [Example 6, (10,11-Dihydro-5H-pyrrolo[2,1-c][1,4]benzodiazepin-10-yl)-[4-((3R)-3-hydroxy-2-methyl-cyclohex-1-en-1-yl)-3-methyl-phenyl]-methanone] | 95% | 
COc1cc(C2=C(C)C(=O)CCC2)c(Cl)cc1C(=O)N1Cc2cccn2Cc2ccccc21 [Example 9, 3-[2-Chloro-5-methoxy-4-(5H-pyrrolo[2,1-c][1,4]benzodiazepin-10(11H)-yl-carbonyl)phenyl]-2-methyl-cyclohex-2-en-1-one] | 90% | 
O=C(c1ccc(C2=CC(O)CCC2)cc1)N1Cc2cccn2Cc2ccccc21 (centres unmarked) [Example 25, (10,11-Dihydro-5H-pyrrolo[2,1-c][1,4]benzodiazepin-10-yl)-[4-(3-hydroxy-cyclohex-1-en-1-yl)-phenyl]-methanone] | 39% | 
CC1=C(c2ccc(C(=O)N3Cc4cccn4Cc4ccccc43)cc2C)CCC[C@H]1O (single isomer, unassigned) [Example 41] | 90% | 
